Assay in all cases: cell-based
Test [1] has as its target T1, hNav1.4 (Homo sapiens, UniProt P35499). The settings on record: ratio of IonWorks Quattro IC50 values. For orientation: Patch clamp records ionic current or voltage across a cell membrane.
Test [2] addresses T1, hNav1.4. As to conditions: ratio of PX IC50 values.
The target of a further test is hNav1.7 (Homo sapiens, UniProt Q15858). The class given is cell-based. As to conditions: PatchXpress, read-out: PX hNav1.7 Tonic IC50.
Setting [3] is: * = at high concentrations compound would wash off slowly or not at all.

Where “and” joins values, the source holds several entries; their conditions need not be identical. Equal values may be shown once. Read-outs that look alike come from different tables or passages of the source.

A word on the IC50: it is the midpoint of a concentration-inhibition curve.

Chain of hNav1.7 (Q15858 whole entry): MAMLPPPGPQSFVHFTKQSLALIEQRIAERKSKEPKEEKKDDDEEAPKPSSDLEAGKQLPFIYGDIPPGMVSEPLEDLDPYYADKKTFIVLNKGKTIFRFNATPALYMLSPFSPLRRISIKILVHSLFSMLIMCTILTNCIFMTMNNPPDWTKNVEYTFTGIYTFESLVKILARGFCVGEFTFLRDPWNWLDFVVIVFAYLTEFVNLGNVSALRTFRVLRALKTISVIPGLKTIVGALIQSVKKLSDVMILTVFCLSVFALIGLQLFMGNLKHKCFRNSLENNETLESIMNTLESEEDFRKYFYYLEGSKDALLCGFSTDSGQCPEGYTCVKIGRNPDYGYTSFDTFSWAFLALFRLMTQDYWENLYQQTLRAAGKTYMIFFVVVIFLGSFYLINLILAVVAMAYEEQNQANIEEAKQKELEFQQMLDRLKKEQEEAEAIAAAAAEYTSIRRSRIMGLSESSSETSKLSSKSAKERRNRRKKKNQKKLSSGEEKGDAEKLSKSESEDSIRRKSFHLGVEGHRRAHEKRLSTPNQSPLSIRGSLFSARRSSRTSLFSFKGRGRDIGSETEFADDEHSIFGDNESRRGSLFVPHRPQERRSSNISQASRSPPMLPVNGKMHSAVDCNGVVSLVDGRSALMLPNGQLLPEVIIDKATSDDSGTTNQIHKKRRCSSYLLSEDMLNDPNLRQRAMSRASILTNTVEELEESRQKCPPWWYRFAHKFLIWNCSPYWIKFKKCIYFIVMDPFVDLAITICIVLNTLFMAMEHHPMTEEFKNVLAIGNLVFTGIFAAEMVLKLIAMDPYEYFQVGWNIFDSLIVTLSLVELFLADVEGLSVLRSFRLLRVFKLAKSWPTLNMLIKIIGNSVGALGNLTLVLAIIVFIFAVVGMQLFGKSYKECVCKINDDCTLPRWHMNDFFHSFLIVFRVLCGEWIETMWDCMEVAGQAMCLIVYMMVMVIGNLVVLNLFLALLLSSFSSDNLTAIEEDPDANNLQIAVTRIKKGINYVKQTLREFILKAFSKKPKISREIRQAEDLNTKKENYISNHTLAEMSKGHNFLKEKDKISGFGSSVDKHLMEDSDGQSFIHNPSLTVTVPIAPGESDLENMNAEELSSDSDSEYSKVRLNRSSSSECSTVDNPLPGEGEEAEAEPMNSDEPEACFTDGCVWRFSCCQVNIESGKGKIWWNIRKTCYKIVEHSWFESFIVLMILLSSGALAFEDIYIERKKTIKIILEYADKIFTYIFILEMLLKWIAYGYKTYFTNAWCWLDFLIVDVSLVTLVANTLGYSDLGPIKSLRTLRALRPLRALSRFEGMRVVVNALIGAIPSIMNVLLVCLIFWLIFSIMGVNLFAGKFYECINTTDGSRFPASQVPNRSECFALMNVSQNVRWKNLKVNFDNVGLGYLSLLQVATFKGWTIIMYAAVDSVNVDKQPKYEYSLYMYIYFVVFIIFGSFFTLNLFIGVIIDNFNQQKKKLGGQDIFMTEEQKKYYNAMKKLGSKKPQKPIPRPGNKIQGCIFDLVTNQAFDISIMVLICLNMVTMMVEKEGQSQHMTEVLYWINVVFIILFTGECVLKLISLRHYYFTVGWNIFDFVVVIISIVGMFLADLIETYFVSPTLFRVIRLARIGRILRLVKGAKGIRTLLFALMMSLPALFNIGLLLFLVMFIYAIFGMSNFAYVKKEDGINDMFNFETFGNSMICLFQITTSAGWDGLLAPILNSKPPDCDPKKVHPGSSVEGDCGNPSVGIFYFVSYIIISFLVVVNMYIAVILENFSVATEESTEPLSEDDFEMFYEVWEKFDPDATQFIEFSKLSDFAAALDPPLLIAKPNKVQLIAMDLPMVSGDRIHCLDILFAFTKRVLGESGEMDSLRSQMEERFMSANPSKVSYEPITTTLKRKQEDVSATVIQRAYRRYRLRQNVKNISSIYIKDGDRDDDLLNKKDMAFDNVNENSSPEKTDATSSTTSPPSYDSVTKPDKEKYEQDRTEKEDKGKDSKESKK
T1 sequence (P35499 whole entry): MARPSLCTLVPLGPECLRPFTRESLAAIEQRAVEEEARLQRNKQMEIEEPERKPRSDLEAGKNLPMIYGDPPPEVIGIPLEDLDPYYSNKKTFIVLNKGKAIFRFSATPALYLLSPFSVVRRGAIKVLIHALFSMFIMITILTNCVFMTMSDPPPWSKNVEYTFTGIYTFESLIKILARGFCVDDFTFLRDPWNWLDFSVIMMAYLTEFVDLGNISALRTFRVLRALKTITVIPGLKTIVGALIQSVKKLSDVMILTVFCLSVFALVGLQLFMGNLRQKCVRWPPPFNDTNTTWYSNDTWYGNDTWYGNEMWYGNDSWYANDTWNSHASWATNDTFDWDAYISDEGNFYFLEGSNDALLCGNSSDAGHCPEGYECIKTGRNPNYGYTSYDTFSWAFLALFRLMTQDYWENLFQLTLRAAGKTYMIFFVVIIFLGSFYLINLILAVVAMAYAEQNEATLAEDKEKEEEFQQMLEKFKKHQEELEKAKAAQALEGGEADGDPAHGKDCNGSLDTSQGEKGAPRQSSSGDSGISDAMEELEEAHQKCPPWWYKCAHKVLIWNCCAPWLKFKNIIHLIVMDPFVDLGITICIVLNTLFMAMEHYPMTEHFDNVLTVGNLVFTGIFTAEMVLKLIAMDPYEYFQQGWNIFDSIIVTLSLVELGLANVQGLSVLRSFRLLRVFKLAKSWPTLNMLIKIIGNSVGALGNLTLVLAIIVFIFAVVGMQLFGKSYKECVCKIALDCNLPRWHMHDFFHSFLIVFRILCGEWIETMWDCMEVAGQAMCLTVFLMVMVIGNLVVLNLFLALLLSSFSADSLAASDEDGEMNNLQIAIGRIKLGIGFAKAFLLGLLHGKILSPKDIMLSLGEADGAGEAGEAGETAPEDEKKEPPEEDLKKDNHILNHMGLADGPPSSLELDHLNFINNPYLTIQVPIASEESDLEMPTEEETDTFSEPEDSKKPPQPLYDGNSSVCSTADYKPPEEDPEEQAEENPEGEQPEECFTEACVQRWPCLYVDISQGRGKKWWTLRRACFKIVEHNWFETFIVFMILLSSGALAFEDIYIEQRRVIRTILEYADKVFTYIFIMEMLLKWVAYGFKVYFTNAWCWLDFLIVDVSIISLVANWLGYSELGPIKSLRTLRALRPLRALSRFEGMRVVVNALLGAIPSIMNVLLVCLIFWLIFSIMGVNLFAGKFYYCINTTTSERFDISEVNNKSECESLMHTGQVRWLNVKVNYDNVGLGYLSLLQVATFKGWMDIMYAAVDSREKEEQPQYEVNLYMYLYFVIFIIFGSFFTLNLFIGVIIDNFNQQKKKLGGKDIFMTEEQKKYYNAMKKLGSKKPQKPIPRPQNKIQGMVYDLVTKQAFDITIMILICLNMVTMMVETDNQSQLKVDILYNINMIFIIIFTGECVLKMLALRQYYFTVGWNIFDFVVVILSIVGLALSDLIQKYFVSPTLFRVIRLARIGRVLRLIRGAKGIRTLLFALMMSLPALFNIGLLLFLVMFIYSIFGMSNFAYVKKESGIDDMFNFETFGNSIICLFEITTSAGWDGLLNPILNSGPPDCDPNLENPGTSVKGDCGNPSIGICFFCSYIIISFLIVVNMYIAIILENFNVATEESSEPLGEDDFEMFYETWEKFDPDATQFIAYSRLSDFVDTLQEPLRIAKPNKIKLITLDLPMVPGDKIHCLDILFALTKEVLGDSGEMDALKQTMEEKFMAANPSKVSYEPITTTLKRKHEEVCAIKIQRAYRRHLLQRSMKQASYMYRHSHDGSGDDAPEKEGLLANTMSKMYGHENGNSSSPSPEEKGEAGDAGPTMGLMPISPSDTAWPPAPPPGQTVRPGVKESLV

For the compound `CCCC[C@@H]1NC(=O)[C@H](Cc2c[nH]c3ccccc23)NC(=O)[C@H](CCCCN)NC(=O)[C@H](CCC(N)=O)NC(=O)[C@@H](NC(=O)[C@@H](N)Cc2cn(CCCOCCOCCOCCOCCOCCOCCOCCOCCOCCOCCN)nn2)CSSC[C@@H]2NC(=O)[C@@H]3CSSC[C@@H](C(=O)N[C@@H](CCCNC(=N)N)C(=O)N[C@@H](CCCCN)C(=O)N[C@H](C(=O)N[C@H](C(N)=O)[C@@H](C)CC)[C@@H](C)CC)NC(=O)[C@H](Cc4c[nH]c5ccccc45)NC(=O)[C@H](CC(C)C)NC(=O)[C@H](CCCCN)NC(=O)[C@H](CSSC[C@H](NC(=O)[C@H]([C@@H](C)O)NC(=O)[C@H](Cc4c[nH]c5ccccc45)NC1=O)C(=O)N[C@@H](CC(=O)O)C(=O)N[C@@H](CO)C(=O)N[C@@H](CCCCN)C(=O)N[C@@H](CCCNC(=N)N)C(=O)N[C@@H](C)C(=O)N3)NC(=O)[C@H](CCCNC(=N)N)NC(=O)[C@H](CC(C)C)NC(=O)CNC(=O)[C@H](CCC(=O)O)NC2=O` [compound 248], the Nav1.4/Nav1.7 on hNav1.4 [1] was 4 and 3; on hNav1.4 [2], 15. Take `CCCC[C@@H]1NC(=O)[C@H](Cc2c[nH]c3ccccc23)NC(=O)[C@H](CCCCN)NC(=O)[C@H](CCC(N)=O)NC(=O)[C@@H](NC(=O)[C@H](Cc2ccc(O)cc2)NC(=O)[C@H](C)N)CSSC[C@@H]2NC(=O)[C@@H]3CSSC[C@@H](C(=O)N[C@@H](CCCNC(=N)N)C(=O)N[C@@H](CCCCN)C(=O)N[C@H](C(=O)N[C@H](C(N)=O)[C@@H](C)CC)[C@@H](C)CC)NC(=O)[C@H](Cc4c[nH]c5ccccc45)NC(=O)[C@H](CC(C)C)NC(=O)[C@H](CCCCN)NC(=O)[C@H](CSSC[C@H](NC(=O)[C@H]([C@@H](C)O)NC(=O)[C@H](Cc4c[nH]c5ccccc45)NC1=O)C(=O)N[C@@H](CC(=O)O)C(=O)N[C@@H](CO)C(=O)N[C@@H](CCCCN)C(=O)N[C@@H](CCCNC(=N)N)C(=O)N[C@@H](C)C(=O)N3)NC(=O)[C@H](CCCNC(=N)N)NC(=O)[C@H](CC(C)C)NC(=O)CNC(=O)[C@H](CCC(=O)O)NC2=O` [compound 357]: at hNav1.7 (setting [3]), the IC50 came out at 0.307 nM. Still for that read-out and setting: in the case of `CCCC[C@@H]1NC(=O)[C@H](Cc2c[nH]c3ccccc23)NC(=O)[C@H](CCCCN)NC(=O)[C@H](CCC(N)=O)NC(=O)[C@@H](NC(=O)[C@H](Cc2ccc(O)cc2)NC(=O)[C@@H](N)Cc2ccccc2)CSSC[C@@H]2NC(=O)[C@@H]3CSSC[C@@H](C(=O)N[C@@H](CCCNC(=N)N)C(=O)N[C@@H](CCCCN)C(=O)N[C@H](C(=O)N[C@H](C(N)=O)[C@@H](C)CC)[C@@H](C)CC)NC(=O)[C@H](Cc4c[nH]c5ccccc45)NC(=O)[C@H](CC(C)C)NC(=O)[C@H](CCCCN)NC(=O)[C@H](CSSC[C@H](NC(=O)[C@H]([C@@H](C)O)NC(=O)[C@H](Cc4c[nH]c5ccccc45)NC1=O)C(=O)N[C@@H](CC(=O)O)C(=O)N[C@@H](CO)C(=O)N[C@@H](CCCCN)C(=O)N[C@@H](CCCNC(=N)N)C(=O)N[C@@H](C)C(=O)N3)NC(=O)[C@H](CCCNC(=N)N)NC(=O)[C@H](CC(C)C)NC(=O)CNC(=O)[C@H](CCC(=O)O)NC2=O` [compound 358] it was 0.493 nM. Same read-out and setting: in the case of `CCCC[C@@H]1NC(=O)[C@H](Cc2c[nH]c3ccccc23)NC(=O)[C@H](CCCCN)NC(=O)[C@H](CCC(N)=O)NC(=O)[C@@H](NC(=O)[C@H](Cc2ccc(O)cc2)NC(=O)CN)CSSC[C@@H]2NC(=O)[C@@H]3CSSC[C@@H](C(=O)N[C@@H](CCCNC(=N)N)C(=O)N[C@@H](CCCCN)C(=O)N[C@H](C(=O)N[C@H](C(N)=O)[C@@H](C)CC)[C@@H](C)CC)NC(=O)[C@H](Cc4c[nH]c5ccccc45)NC(=O)[C@H](CC(C)C)NC(=O)[C@H](CCCCN)NC(=O)[C@H](CSSC[C@H](NC(=O)[C@H]([C@@H](C)O)NC(=O)[C@H](Cc4c[nH]c5ccccc45)NC1=O)C(=O)N[C@@H](CC(=O)O)C(=O)N[C@@H](CO)C(=O)N[C@@H](CCCCN)C(=O)N[C@@H](CCCNC(=N)N)C(=O)N[C@@H](C)C(=O)N3)NC(=O)[C@H](CCCNC(=N)N)NC(=O)[C@H](CC(C)C)NC(=O)CNC(=O)[C@H](CCC(=O)O)NC2=O` [compound 359] it was 0.384 nM; in that of `CCCC[C@@H]1NC(=O)[C@H](Cc2c[nH]c3ccccc23)NC(=O)[C@H](CCCCN)NC(=O)[C@H](CCC(N)=O)NC(=O)[C@@H](NC(=O)[C@H](Cc2ccc(O)cc2)NC(=O)[C@@H](N)[C@@H](C)CC)CSSC[C@@H]2NC(=O)[C@@H]3CSSC[C@@H](C(=O)N[C@@H](CCCNC(=N)N)C(=O)N[C@@H](CCCCN)C(=O)N[C@H](C(=O)N[C@H](C(N)=O)[C@@H](C)CC)[C@@H](C)CC)NC(=O)[C@H](Cc4c[nH]c5ccccc45)NC(=O)[C@H](CC(C)C)NC(=O)[C@H](CCCCN)NC(=O)[C@H](CSSC[C@H](NC(=O)[C@H]([C@@H](C)O)NC(=O)[C@H](Cc4c[nH]c5ccccc45)NC1=O)C(=O)N[C@@H](CC(=O)O)C(=O)N[C@@H](CO)C(=O)N[C@@H](CCCCN)C(=O)N[C@@H](CCCNC(=N)N)C(=O)N[C@@H](C)C(=O)N3)NC(=O)[C@H](CCCNC(=N)N)NC(=O)[C@H](CC(C)C)NC(=O)CNC(=O)[C@H](CCC(=O)O)NC2=O` [compound 360], 0.519 nM; in that of `CCCC[C@@H]1NC(=O)[C@H](Cc2c[nH]c3ccccc23)NC(=O)[C@H](CCCCN)NC(=O)[C@H](CCC(N)=O)NC(=O)[C@@H](NC(=O)[C@H](Cc2ccc(O)cc2)NC(=O)[C@@H]2CCCN2)CSSC[C@@H]2NC(=O)[C@@H]3CSSC[C@@H](C(=O)N[C@@H](CCCNC(=N)N)C(=O)N[C@@H](CCCCN)C(=O)N[C@H](C(=O)N[C@H](C(N)=O)[C@@H](C)CC)[C@@H](C)CC)NC(=O)[C@H](Cc4c[nH]c5ccccc45)NC(=O)[C@H](CC(C)C)NC(=O)[C@H](CCCCN)NC(=O)[C@H](CSSC[C@H](NC(=O)[C@H]([C@@H](C)O)NC(=O)[C@H](Cc4c[nH]c5ccccc45)NC1=O)C(=O)N[C@@H](CC(=O)O)C(=O)N[C@@H](CO)C(=O)N[C@@H](CCCCN)C(=O)N[C@@H](CCCNC(=N)N)C(=O)N[C@@H](C)C(=O)N3)NC(=O)[C@H](CCCNC(=N)N)NC(=O)[C@H](CC(C)C)NC(=O)CNC(=O)[C@H](CCC(=O)O)NC2=O` [compound 362], 0.372 nM. On the same count and under the same terms, in the case of `CCCC[C@@H]1NC(=O)[C@H](Cc2c[nH]c3ccccc23)NC(=O)[C@H](CCCCN)NC(=O)[C@H](CCC(N)=O)NC(=O)[C@@H](NC(=O)[C@H](Cc2ccc(O)cc2)NC(=O)[C@@H](N)C(C)C)CSSC[C@@H]2NC(=O)[C@@H]3CSSC[C@@H](C(=O)N[C@@H](CCCNC(=N)N)C(=O)N[C@@H](CCCCN)C(=O)N[C@H](C(=O)N[C@H](C(N)=O)[C@@H](C)CC)[C@@H](C)CC)NC(=O)[C@H](Cc4c[nH]c5ccccc45)NC(=O)[C@H](CC(C)C)NC(=O)[C@H](CCCCN)NC(=O)[C@H](CSSC[C@H](NC(=O)[C@H]([C@@H](C)O)NC(=O)[C@H](Cc4c[nH]c5ccccc45)NC1=O)C(=O)N[C@@H](CC(=O)O)C(=O)N[C@@H](CO)C(=O)N[C@@H](CCCCN)C(=O)N[C@@H](CCCNC(=N)N)C(=O)N[C@@H](C)C(=O)N3)NC(=O)[C@H](CCCNC(=N)N)NC(=O)[C@H](CC(C)C)NC(=O)CNC(=O)[C@H](CCC(=O)O)NC2=O` [compound 363] it was 0.551 nM. On to `CCCC[C@@H]1NC(=O)[C@H](Cc2c[nH]c3ccccc23)NC(=O)[C@H](CCCCN)NC(=O)[C@H](CCC(N)=O)NC(=O)[C@@H](NC(=O)[C@H](Cc2ccc(O)cc2)NC(=O)[C@@H](N)Cc2ccc(O)cc2)CSSC[C@@H]2NC(=O)[C@@H]3CSSC[C@@H](C(=O)N[C@@H](CCCNC(=N)N)C(=O)N[C@@H](CCCCN)C(=O)N[C@H](C(=O)N[C@H](C(N)=O)[C@@H](C)CC)[C@@H](C)CC)NC(=O)[C@H](Cc4c[nH]c5ccccc45)NC(=O)[C@H](CC(C)C)NC(=O)[C@H](CCCCN)NC(=O)[C@H](CSSC[C@H](NC(=O)[C@H]([C@@H](C)O)NC(=O)[C@H](Cc4c[nH]c5ccccc45)NC1=O)C(=O)N[C@@H](CC(=O)O)C(=O)N[C@@H](CO)C(=O)N[C@@H](CCCCN)C(=O)N[C@@H](CCCNC(=N)N)C(=O)N[C@@H](C)C(=O)N3)NC(=O)[C@H](CCCNC(=N)N)NC(=O)[C@H](CC(C)C)NC(=O)CNC(=O)[C@H](CCC(=O)O)NC2=O` [compound 365], for which, at hNav1.7 (setting [3]), the IC50 was 0.372 nM. Same read-out and setting: in the case of `C=CC[C@H](N)C(=O)N[C@@H](Cc1ccc(O)cc1)C(=O)N[C@H]1CSSC[C@@H]2NC(=O)[C@@H]3CSSC[C@@H](C(=O)N[C@@H](CCCNC(=N)N)C(=O)N[C@@H](CCCCN)C(=O)N[C@H](C(=O)N[C@H](C(N)=O)[C@@H](C)CC)[C@@H](C)CC)NC(=O)[C@H](Cc4c[nH]c5ccccc45)NC(=O)[C@H](CC(C)C)NC(=O)[C@H](CCCCN)NC(=O)[C@H](CSSC[C@H](NC(=O)[C@H]([C@@H](C)O)NC(=O)[C@H](Cc4c[nH]c5ccccc45)NC(=O)[C@H](CCCC)NC(=O)[C@H](Cc4c[nH]c5ccccc45)NC(=O)[C@H](CCCCN)NC(=O)[C@H](CCC(N)=O)NC1=O)C(=O)N[C@@H](CC(=O)O)C(=O)N[C@@H](CO)C(=O)N[C@@H](CCCCN)C(=O)N[C@@H](CCCNC(=N)N)C(=O)N[C@@H](C)C(=O)N3)NC(=O)[C@H](CCCNC(=N)N)NC(=O)[C@H](CC(C)C)NC(=O)CNC(=O)[C@H](CCC(=O)O)NC2=O` [compound 367] it was 0.488 nM. On to `C#CC[C@H](N)C(=O)NCCCC[C@@H]1NC(=O)[C@H](CCCNC(=N)N)NC(=O)[C@H](CCCCN)NC(=O)[C@H](CO)NC(=O)[C@H](CC(=O)O)NC(=O)[C@@H]2CSSC[C@@H]3NC(=O)[C@H](CCC(=O)O)NC(=O)[C@H](CC(C)C)NC(=O)CNC(=O)[C@H](CCC(=O)O)NC(=O)[C@H](CSSC[C@H](NC(=O)[C@H](Cc4ccc(O)cc4)NC(=O)[C@@H](N)CCC)C(=O)N[C@@H](CCC(N)=O)C(=O)N[C@@H](CCCCN)C(=O)N[C@@H](Cc4c[nH]c5ccccc45)C(=O)N[C@@H](CCCC)C(=O)N[C@@H](Cc4c[nH]c5ccccc45)C(=O)N[C@@H]([C@@H](C)O)C(=O)N2)NC(=O)[C@H](CSSC[C@@H](C(=O)N[C@@H](CCCNC(=N)N)C(=O)N[C@@H](CCCCN)C(=O)N[C@@H](Cc2ccc(O)cc2)C(=O)N[C@H](C(N)=O)[C@@H](C)CC)NC(=O)[C@H](Cc2c[nH]c4ccccc24)NC(=O)[C@H](CC(C)C)NC(=O)[C@H](CCCCN)NC3=O)NC1=O` [compound 436], for which the IC50 on hNav1.7 (tonic block) turned out to be 2.96 nM.
